One experiment relates to Bovine cardiac myofibrils. The experiment is described as follows: In vitro model of dose-dependent myofibril ATPase modulation (AC1.4, pyruvate kinase/lactate dehydrogenase-coupled ATPase assay at pCa25). Format: biochemical. As to conditions: concentration at which ATPase activity was 1.4-fold higher than the bottom of the dose curve, mean of a minimum of two independent tests. In outline: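 We measure calcium-buffered ATPase activity of detergent-skinned bovine cardiac myofibrils at pH 6.80 and 22° C with 1 mM ATP, using a PK/LDH-coupled NADH readout at 340 nm. Values come from four-parameter dose-response fits, averaged over at least two independent runs.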
`N#CC1CN(S(=O)(=O)N2CCC[C@H](C(=O)N3CCC[C@@H]3C(=O)NCc3cc(F)cc(F)c3)C2)C1` [Example 287, 1-(((3S)-1-((3-cyano-1-azetidinyl)sulfonyl)-3-piperidinyl)carbonyl)-N-(3,5-difluorobenzyl)-D-prolinamide] gave an AC1.4 of 0.7212 µM. Same read-out and setting: with `CS(=O)(=O)c1cncc(C(=O)N2C[C@H]3C[C@H]3[C@@H]2C(=O)N[C@@H](c2cc(F)c(Cl)cc2F)C2CC2)c1` [Example 512, (1R,2R,5S)-N-((R)-(4-chloro-2,5-difluorophenyl)(cyclopropyl)methyl)-3-((5-(methylsulfonyl)-3-pyridinyl)carbonyl)-3-azabicyclo[3.1.0]hexane-2-carboxamide] the figure was 2.252 µM; with `N#CC1CC(S(=O)(=O)c2cccc(C(=O)N3CCC[C@@H]3C(=O)NCc3ccc(C(F)(F)F)nc3)c2)C1` (stereo partly drawn) [Example 507, (R)-1-(3-((3-cyanocyclobutyl)sulfonyl)benzoyl)-N-((6-(trifluoromethyl)pyridin-3-yl)methyl)pyrrolidine-2-carboxamide], 2.38 µM. Turning to `O=C(N[C@@H](c1ccc(C(F)(F)F)cc1F)C1CC1)[C@H]1CCCCN1C(=O)c1cccc(C(O)C(F)(F)F)c1` (stereo partly drawn) [Example 347, (2R)-N-((R)-cyclopropyl(2-fluoro-4-(trifluoromethyl)phenyl)methyl)-1-(3-(2,2,2-trifluoro-1-hydroxyethyl)benzoyl)piperidine-2-carboxamide], the AC1.4 was 1.0255 µM.

Molecule `CCS(=O)(=O)c1cccc(C(=O)N2[C@@H](C(=O)N[C@@H](c3ccc(C(F)(F)F)cc3F)C3(O)CC3)C[C@H]3C[C@H]32)c1` [Example 382, (1R,3R,5R)-2-(3-(ethylsulfonyl)benzoyl)-N-((S)-(2-fluoro-4-(trifluoromethyl)phenyl)(1-hydroxycyclopropyl)methyl)-2-azabicyclo[3.1.0]hexane-3-carboxamide] registered an AC1.4 of 1.232 µM. Consider `O=C(N[C@@H](c1ccc(C(F)(F)F)cc1F)C1CC1)[C@H]1CCCCN1C(=O)c1ccc2c(c1)S(=O)(=O)CC2` [Example 653, (2R)—N—((R)-cyclopropyl(2-fluoro-4-(trifluoromethyl)phenyl)methyl)-1-((1,1-dioxido-2,3-dihydro-1-benzothiophen-6-yl)carbonyl)-2-piperidinecarboxamide], for which the AC1.4 was 4.5245 µM. Still for that read-out and setting: with `Cc1cc(CNC(=O)[C@H]2CCCN2C(=O)[C@H]2CCCN(S(=O)(=O)N3CC(C#N)C3)C2)cc(C(F)(F)F)c1` [Example 358, 1-(((3S)-1-((3-cyano-1-azetidinyl)sulfonyl)-3-piperidinyl)carbonyl)-N-(3-methyl-5-(trifluoromethyl)benzyl)-D-prolinamide] the figure was 1.0947 µM. The same measure, in the same setting: with `O=C(N[C@@H](c1ccc(C(F)(F)F)cc1F)C1CC1)[C@H]1C[C@H]2C[C@H]2N1C(=O)c1cccc(S(=O)(=O)CCO)c1` [Example 249, (1R,3R,5R)-N-((R)-cyclopropyl(2-fluoro-4-(trifluoromethyl)phenyl)methyl)-2-(3-((2-hydroxyethyl)sulfonyl)benzoyl)-2-azabicyclo[3.1.0]hexane-3-carboxamide] the figure was 0.5932 µM.

For the molecule `CS(=O)(=O)c1cc(C(=O)N2C[C@H]3C[C@H]3[C@@H]2C(=O)N[C@@H](c2cc(F)c(Cl)cc2F)C2CC2)ccn1` [Example 393, (1R,2R,5S)-N-((R)-(4-chloro-2,5-difluorophenyl)(cyclopropyl)methyl)-3-((2-(methylsulfonyl)-4-pyridinyl)carbonyl)-3-azabicyclo[3.1.0]hexane-2-carboxamide], the AC1.4 stood at 1.3425 µM. The same measure, in the same setting: with `C[C@H](C(=O)N[C@H](C)c1ccc(C(F)(F)F)cc1)N(C)C(=O)c1cccc(S(=O)(=O)N2CC(C#N)C2)c1` [Example 121, 3-((3-cyano-1-azetidinyl)sulfonyl)-N-methyl-N-((1R)-1-methyl-2-oxo-2-(((1R)-1-(4-(trifluoromethyl)phenyl)ethyl)amino)ethyl)benzamide] the figure was 0.1828 µM; with `O=C(N[C@@H](c1cc(F)c(Cl)cc1F)C1CC1)[C@H]1C[C@H]2C[C@H]2N1C(=O)c1cc(S(=O)(=O)C2CC2)ccn1` [Example 138, (1R,3R,5R)-N-((R)-(4-chloro-2,5-difluorophenyl)(cyclopropyl)methyl)-2-((4-(cyclopropylsulfonyl)-2-pyridinyl)carbonyl)-2-azabicyclo[3.1.0]hexane-3-carboxamide], 0.2306 µM.

`COC1CCN(S(=O)(=O)c2cccc(C(=O)N3CCC[C@@H]3C(=O)NCc3ccc(C(F)(F)F)cc3)c2)CC1` [Example 474, 1-((3-((4-methoxy-1-piperidinyl)sulfonyl)phenyl)carbonyl)-N-(4-(trifluoromethyl)benzyl)-D-prolinamide] came in with an AC1.4 of 2.036 µM. Same read-out and setting: for `CC(O)C(NC(=O)[C@H]1C[C@H]2C[C@H]2N1C(=O)c1cccc(S(C)(=O)=O)c1)c1ccc(C(F)(F)F)cc1F` (stereo partly drawn) [Example 601, (1R,3R,5R)-N-(1-(2-fluoro-4-(trifluoromethyl)phenyl)-2-hydroxypropyl)-2-(3-(methylsulfonyl)benzoyl)-2-azabicyclo[3.1.0]hexane-3-carboxamide] the value was 3.276 µM.

For `CC(C)[C@H](NC(=O)[C@H]1CCCN1C(=O)c1cccc(S(=O)(=O)N2CC(C#N)C2)c1)c1ccc(C(F)(F)F)cc1F` [Example 220, 1-(3-((3-cyano-1-azetidinyl)sulfonyl)benzoyl)-N-((1S)-1-(2-fluoro-4-(trifluoromethyl)phenyl)-2-methylpropyl)-D-prolinamide], the AC1.4 is 0.4809 µM. Same read-out and setting: for `CS(=O)(=O)c1cccc(C(=O)N2CCCC[C@@H]2C(=O)N[C@@H](c2ccc(C(F)(F)F)cc2F)C2CC2)c1` [Example 253, (2R)-N-((R)-cyclopropyl(2-fluoro-4-(trifluoromethyl)phenyl)methyl)-1-(3-(methylsulfonyl)benzoyl)-2-piperidinecarboxamide] the value was 0.6092 µM; for `O=C(NCc1ccc(C(F)(F)F)cc1F)[C@H]1CCCN1C(=O)c1cccc(S(=O)(=O)N2CC(O)C2)c1` [Example 449, N-(2-fluoro-4-(trifluoromethyl)benzyl)-1-(3-((3-hydroxy-1-azetidinyl)sulfonyl)benzoyl)-D-prolinamide], 1.845 µM; for `C[C@@]1(C(=O)N[C@@H](c2cc(F)c(C(F)(F)F)cc2F)C2CC2)CCN1C(=O)c1cccc(S(C)(=O)=O)c1` [Example 670, (2S)-N-((R)-cyclopropyl(2,5-difluoro-4-(trifluoromethyl)phenyl)methyl)-2-methyl-1-(3-(methylsulfonyl)benzoyl)-2-azetidinecarboxamide], 4.735 µM.

`O=C(NCc1ccc(C(F)(F)F)cc1F)[C@H]1CCCN1C(=O)[C@H]1CCCN(S(=O)(=O)N2CC(n3ccnn3)C2)C1` [Example 151, N-(2-fluoro-4-(trifluoromethyl)benzyl)-1-(((3S)-1-((3-(1H-l,2,3-triazol-1-yl)-1-azetidinyl)sulfonyl)-3-piperidinyl)carbonyl)-D-prolinamide] had an AC1.4 of 0.2616 µM.

`O=C(NCc1ccc(C(F)(F)F)cc1)[C@H]1CCCN1C(=O)[C@H]1CCCN(S(=O)(=O)N2CC(Oc3ccc(Cl)cc3)C2)C1` [Example 424, 1-(((3S)-1-((3-(4-chlorophenoxy)-1-azetidinyl)sulfonyl)-3-piperidinyl)carbonyl)-N-(4-(trifluoromethyl)benzyl)-D-prolinamide]: the AC1.4 is 1.5805 µM. Take `CN(Cc1ccc(C(F)(F)F)cc1)C(=O)[C@H]1CCCN1C(=O)[C@H]1CCCN(S(=O)(=O)N2CC(C#N)C2)C1` [Example 363, 1-(((3S)-1-((3-cyano-1-azetidinyl)sulfonyl)-3-piperidinyl)carbonyl)-N-methyl-N-(4-(trifluoromethyl)benzyl)-D-prolinamide]: the AC1.4 is 1.143 µM. On the same count and under the same terms, for `CS(=O)(=O)c1cccc(C(=O)N2CCC(F)(F)CC2C(=O)N[C@@H](c2ccc(C(F)(F)F)cc2F)C2CC2)c1` (stereo partly drawn) [Example 525, N-((R)-cyclopropyl(2-fluoro-4-(trifluoromethyl)phenyl)methyl)-4,4-difluoro-1-(3-(methylsulfonyl)benzoyl)piperidine-2-carboxamide] the value was 2.4285 µM.

For the next experiment, the system named is Male CD rats. The experiment in a line: Pressure-volume loop (PV Loop) protocol (invasive hemodynamics): ejection fraction (% EF) during intravenous infusion, MEE. Format: in vivo. More on the design: unit not given here. Particulars: exposure at 10% increase in % EF from baseline, rat, formulation 40% HPbCD, corrected for rat plasma protein binding. Here is the method: Formulations: A compound as disclosed herein and water were admixed together. Either 30% wt/vol or 40% wt/vol of hydroxypropyl beta-cyclodextrin (HPBCD) was added and the mixture stirred until dissolved.
Echocardiography/ultrasound protocol: Serial echocardiography was conducted with the aid of an imaging system suitable for rodent cardiac ultrasound. Male CD rats (6-10 weeks of age; 6-12 animals per group) were cannulated with a jugular vein catheter to enable delivery of test article by intravenous infusion. […] An imaging probe was fixed in position to acquire short axis (SAX), motion (M)—mode images of the left cardiac ventricle at the level of the papillary muscles. Baseline data was acquired prior to initiating test article delivery. Test article (compound as disclosed herein in a HPBCD formulation), or vehicle control, was delivered with the aid of an infusion pump connected to the jugular vein catheter. Infusion rate of test article was increased at 15 min intervals, to a maximum of 5 mL/kg/hr. Ultrasound images were acquired at 5 min intervals. Additionally whole blood (not exceeding 10 uL) was collected via a tail nick at the same 5 min intervals for subsequent exposure determination.
Whole blood samples were analyzed by protein precipitation and liquid chromatography tandem mass spectrometry (LC-MS/MS) using multiple reaction monitoring (MRM) in positive ionization mode. The lower limit of quantitation (LLOQ) in the assay was 1 ng/mL and the upper limit of quantitation (ULOQ) was 10,000 ng/mL.
Pressure-volume loop (PV Loop) protocol (invasive hemodynamics): Left ventricular catheterization with a pressure-volume transducing catheter was applied as an alternative method to derive pharmacodynamic endpoints. A pressure volume conductance catheter was inserted via the left carotid artery and advanced into the left ventricle. The electrical signal emitted from the volume catheter was used to derive measures of relative volume at 5 min intervals. From these measures, left ventricular end diastolic volume (LVEDV) and left ventricular end systolic volume (LVESV) were derived. Ejection fraction was then derived using the following formula: % EF=((LVEDV−LVESV)/LVEDV)*100. Minimally efficacious exposure (MEE) was defined as the exposure at which a 10% increase in % EF from baseline was observed. The MEE was derived by plotting assayed exposures against % EF and using non-linear curve fitting (log(exposure) vs. % EF; variable slope, 4 parameters). Response to vehicle at each time point was averaged and all test article responses were normalized to baseline and subtracted from time matched (averaged) vehicle responses. Animal preparation, vehicle/test article delivery and blood sampling for exposure determination was as described in Echocardiography/ultrasound protocol.
As to `N#CC1CN(S(=O)(=O)N2CCC[C@H](C(=O)N3CCC[C@@H]3C(=O)NCc3cc(F)cc(F)c3)C2)C1` [Example 287, 1-(((3S)-1-((3-cyano-1-azetidinyl)sulfonyl)-3-piperidinyl)carbonyl)-N-(3,5-difluorobenzyl)-D-prolinamide], the “MEE* (unbound), minimally efficacious exposure” value is 0.47.

For the origin of these results see US11780826B2 (Amgen Inc., priority 2017, dated 2023).
